Test results published in patent US20150105252A1, “SUBSTITUTED PYRAZOLES AS HERBICIDES” (E I DU PONT DE NEMOURS AND COMPANY, priority 2013, published 2015).

Key:
corn [1] = experiment: Test A preemergence; format: in vivo, Zea mays; conditions: preemergence
Method in brief: (§1)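 Scoring was visual, on a scale where 100 means complete control and 0 means no effect, comparing treated with untreated plants around 10 days post-application. Compounds in surfactant-containing non-phytotoxic solvent were sprayed onto soil preemergence or onto one- to two-leaf seedlings (2–10 cm) postemergence.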

corn [2] = experiment: Test A postemergence; format: in vivo, Zea mays
Method in brief: as §1

foxtail, giant [3] = experiment: Test A preemergence; format: in vivo, Setaria faberii; conditions: preemergence
Method in brief: as §1

morningglory [4] = experiment: Test A preemergence; format: in vivo, Ipomoea spp.; conditions: preemergence
Method in brief: as §1

pigweed [5] = experiment: Test A postemergence; format: in vivo, Amaranthus retroflexus
Method in brief: as §1

rice = experiment: Test B flood; format: in vivo, Oryza sativa; conditions: 250 g ai/ha, visual rating on 0 to 100 scale (0 no effect, 100 complete control), 13 to 15 days
Method in brief: (§2)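 Plants were grown to the 2-leaf stage, then pots were flooded to 3 cm above the soil and compounds were applied directly into the paddy water. Water depth was held for the whole test; after 13 to 15 days in a greenhouse, injury was visually rated against untreated controls (0 = no effect, 100 = complete control).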

sedge, umbrella = experiment: Test B flood; format: in vivo, Cyperus difformis; conditions: 250 g ai/ha, visual rating on 0 to 100 scale (0 no effect, 100 complete control), 13 to 15 days
Method in brief: as §2

ducksalad = experiment: Test B flood; format: in vivo, Heteranthera limosa; conditions: 250 g ai/ha, visual rating on 0 to 100 scale (0 no effect, 100 complete control), 13 to 15 days
Method in brief: as §2

barnyardgrass [6] = experiment: Test B flood; format: in vivo, Echinochloa crus-galli; conditions: 250 g ai/ha, visual rating on 0 to 100 scale (0 no effect, 100 complete control), 13 to 15 days
Method in brief: as §2

wheat [7] = experiment: Test A postemergence; format: in vivo, Triticum aestivum
Method in brief: as §1

foxtail, giant [8] = experiment: Test A postemergence; format: in vivo, Setaria faberii
Method in brief: as §1

velvetleaf [9] = experiment: Test A postemergence; format: in vivo, Abutilon theophrasti
Method in brief: as §1

barnyardgrass [10] = experiment: Test A preemergence; format: in vivo, Echinochloa crus-galli; conditions: preemergence
Method in brief: as §1

crabgrass, large [11] = experiment: Test A preemergence; format: in vivo, Digitaria sanguinalis; conditions: preemergence
Method in brief: as §1

wheat [12] = experiment: Test A preemergence; format: in vivo, Triticum aestivum; conditions: preemergence
Method in brief: as §1

morningglory [13] = experiment: Test A postemergence; format: in vivo, Ipomoea spp.
Method in brief: as §1

crabgrass, large [14] = experiment: Test A postemergence; format: in vivo, Digitaria sanguinalis
Method in brief: as §1

barnyardgrass [15] = experiment: Test A postemergence; format: in vivo, Echinochloa crus-galli
Method in brief: as §1

velvetleaf [16] = experiment: Test A preemergence; format: in vivo, Abutilon theophrasti; conditions: preemergence
Method in brief: as §1

pigweed [17] = experiment: Test A preemergence; format: in vivo, Amaranthus retroflexus; conditions: preemergence
Method in brief: as §1

[18] = 125 g ai/ha, visual injury, 0 to 100 scale, approx. 10 days
[19] = 500 g ai/ha, visual injury after approx. 10 days, 0 to 100 scale (0 no effect, 100 complete control)
[20] = Postemergence, 500 g ai/ha, visual rating after approx. 10 days, 0 to 100 scale (0 no effect, 100 complete control)
[21] = postemergence, 125 g ai/ha, about 10 days, visual rating on 0 to 100 scale (0 no effect, 100 complete control)
[22] = Postemergence, 500 g ai/ha, 0 to 100 scale (0 no effect, 100 complete control)

In the case of `CCc1cc(C(=O)NC2CC2)nn1Cc1cc(C(F)(F)F)nn1CC` [Compound 118], the “Corn plant response rating” value (corn [1]; [18]) is reported as 0, the “Corn plant response rating” value (corn [1]; [19]) is reported as 50 and the “Corn plant response rating” value (corn [2]; [20]) is reported as 50. The “Corn plant response rating” value (corn [2]; [21]) was 20, the “Foxtail, Giant plant response rating” value (foxtail, giant [3]; [18]) was 70 and the “Foxtail, Giant plant response rating” value (foxtail, giant [3]; [19]) was 90. For the same molecule, the “Morningglory plant response rating” value (morningglory [4]; [18]) was 70, the “Morningglory plant response rating” value (morningglory [4]; [19]) was 100 and the “Pigweed plant response rating” value (pigweed [5]; [20]) was 100. For the same molecule, the “Pigweed plant response rating” value (pigweed [5]; [21]) was 80, the “Plant response rating, Rice” value (rice) was 0 and the “Plant response rating, Sedge, Umbrella” value (sedge, umbrella) was 85. The “Plant response rating, Ducksalad” value (ducksalad) was 30, the “Plant response rating, Barnyardgrass” value (barnyardgrass [6]) was 0 and the “Wheat plant response rating” value (wheat [7]; [20]) was 40. The “Wheat plant response rating” value (wheat [7]; [21]) was 0, the “Foxtail, Giant plant response rating” value (foxtail, giant [8]; [20]) was 70 and the “Foxtail, Giant plant response rating” value (foxtail, giant [8]; [21]) was 10. The “Velvetleaf plant response rating” value (velvetleaf [9]; [20]) was 80, the “Velvetleaf plant response rating” value (velvetleaf [9]; [21]) was 50 and the “Barnyardgrass plant response rating” value (barnyardgrass [10]; [18]) was 40. For the same molecule, the “Barnyardgrass plant response rating” value (barnyardgrass [10]; [19]) was 100, the “Crabgrass, Large plant response rating” value (crabgrass, large [11]; [18]) was 100 and the “Crabgrass, Large plant response rating” value (crabgrass, large [11]; [19]) was 100. The “Wheat plant response rating” value (wheat [12]; [18]) was 0, the “Wheat plant response rating” value (wheat [12]; [19]) was 30 and the “Morningglory plant response rating” value (morningglory [13]; [20]) was 90. The “Morningglory plant response rating” value (morningglory [13]; [21]) was 70, the “Crabgrass, Large plant response rating” value (crabgrass, large [14]; [20]) was 90 and the “Crabgrass, Large plant response rating” value (crabgrass, large [14]; [21]) was 40. The “Barnyardgrass plant response rating” value (barnyardgrass [15]; [20]) was 80, the “Barnyardgrass plant response rating” value (barnyardgrass [15]; [21]) was 30 and the “Velvetleaf plant response rating” value (velvetleaf [16]; [18]) was 0. The “Velvetleaf plant response rating” value (velvetleaf [16]; [19]) was 80, the “Pigweed plant response rating” value (pigweed [17]; [18]) was 100 and the “Pigweed plant response rating” value (pigweed [17]; [19]) was 100.
In the case of `CCc1cc(C(=O)NCC(F)(F)F)nn1Cc1cc(C(F)(F)F)nn1CC` [Compound 119], the “Corn plant response rating” value (corn [1]; [18]) is reported as 0, the “Corn plant response rating” value (corn [1]; [19]) is reported as 30 and the “Corn plant response rating” value (corn [2]; [22]) is reported as 50. For the same molecule, the “Corn plant response rating” value (corn [2]; [21]) was 0, the “Foxtail, Giant plant response rating” value (foxtail, giant [3]; [18]) was 20 and the “Foxtail, Giant plant response rating” value (foxtail, giant [3]; [19]) was 80. For the same molecule, the “Morningglory plant response rating” value (morningglory [4]; [18]) was 20, the “Morningglory plant response rating” value (morningglory [4]; [19]) was 60 and the “Pigweed plant response rating” value (pigweed [5]; [22]) was 90. The “Pigweed plant response rating” value (pigweed [5]; [21]) was 60, the “Plant response rating, Rice” value (rice) was 0 and the “Plant response rating, Sedge, Umbrella” value (sedge, umbrella) was 75. The “Plant response rating, Ducksalad” value (ducksalad) was 40, the “Plant response rating, Barnyardgrass” value (barnyardgrass [6]) was 0 and the “Wheat plant response rating” value (wheat [7]; [22]) was 10. The “Wheat plant response rating” value (wheat [7]; [21]) was 0, the “Foxtail, Giant plant response rating” value (foxtail, giant [8]; [22]) was 50 and the “Foxtail, Giant plant response rating” value (foxtail, giant [8]; [21]) was 20. The “Velvetleaf plant response rating” value (velvetleaf [9]; [22]) was 70, the “Velvetleaf plant response rating” value (velvetleaf [9]; [21]) was 50 and the “Barnyardgrass plant response rating” value (barnyardgrass [10]; [18]) was 0. For the same molecule, the “Barnyardgrass plant response rating” value (barnyardgrass [10]; [19]) was 70, the “Crabgrass, Large plant response rating” value (crabgrass, large [11]; [18]) was 70 and the “Crabgrass, Large plant response rating” value (crabgrass, large [11]; [19]) was 100. For the same molecule, the “Wheat plant response rating” value (wheat [12]; [18]) was 0, the “Wheat plant response rating” value (wheat [12]; [19]) was 20 and the “Morningglory plant response rating” value (morningglory [13]; [22]) was 100. For the same molecule, the “Morningglory plant response rating” value (morningglory [13]; [21]) was 90, the “Crabgrass, Large plant response rating” value (crabgrass, large [14]; [22]) was 60 and the “Crabgrass, Large plant response rating” value (crabgrass, large [14]; [21]) was 20. For the same molecule, the “Barnyardgrass plant response rating” value (barnyardgrass [15]; [22]) was 60, the “Barnyardgrass plant response rating” value (barnyardgrass [15]; [21]) was 10 and the “Velvetleaf plant response rating” value (velvetleaf [16]; [18]) was 0. For the same molecule, the “Velvetleaf plant response rating” value (velvetleaf [16]; [19]) was 30, the “Pigweed plant response rating” value (pigweed [17]; [18]) was 80 and the “Pigweed plant response rating” value (pigweed [17]; [19]) was 100.
For `CCONC(=O)c1cc(CC)n(Cc2cc(C(F)(F)F)nn2CC)n1` [Compound 121], the “Corn plant response rating” value (corn [1]; [18]) was 30, the “Corn plant response rating” value (corn [1]; [19]) was 90 and the “Corn plant response rating” value (corn [2]; [22]) was 70. The “Corn plant response rating” value (corn [2]; [21]) was 40, the “Foxtail, Giant plant response rating” value (foxtail, giant [3]; [18]) was 60 and the “Foxtail, Giant plant response rating” value (foxtail, giant [3]; [19]) was 80. The “Morningglory plant response rating” value (morningglory [4]; [18]) was 100, the “Morningglory plant response rating” value (morningglory [4]; [19]) was 100 and the “Pigweed plant response rating” value (pigweed [5]; [22]) was 100. For the same molecule, the “Pigweed plant response rating” value (pigweed [5]; [21]) was 90, the “Plant response rating, Rice” value (rice) was 20 and the “Plant response rating, Sedge, Umbrella” value (sedge, umbrella) was 75. The “Plant response rating, Ducksalad” value (ducksalad) was 75, the “Plant response rating, Barnyardgrass” value (barnyardgrass [6]) was 15 and the “Wheat plant response rating” value (wheat [7]; [22]) was 60. The “Wheat plant response rating” value (wheat [7]; [21]) was 0, the “Foxtail, Giant plant response rating” value (foxtail, giant [8]; [22]) was 80 and the “Foxtail, Giant plant response rating” value (foxtail, giant [8]; [21]) was 50. For the same molecule, the “Velvetleaf plant response rating” value (velvetleaf [9]; [22]) was 100, the “Velvetleaf plant response rating” value (velvetleaf [9]; [21]) was 60 and the “Barnyardgrass plant response rating” value (barnyardgrass [10]; [18]) was 70. For the same molecule, the “Barnyardgrass plant response rating” value (barnyardgrass [10]; [19]) was 100, the “Crabgrass, Large plant response rating” value (crabgrass, large [11]; [18]) was 90 and the “Crabgrass, Large plant response rating” value (crabgrass, large [11]; [19]) was 100. The “Wheat plant response rating” value (wheat [12]; [18]) was 10, the “Wheat plant response rating” value (wheat [12]; [19]) was 80 and the “Morningglory plant response rating” value (morningglory [13]; [22]) was 100. For the same molecule, the “Morningglory plant response rating” value (morningglory [13]; [21]) was 90, the “Crabgrass, Large plant response rating” value (crabgrass, large [14]; [22]) was 90 and the “Crabgrass, Large plant response rating” value (crabgrass, large [14]; [21]) was 70. For the same molecule, the “Barnyardgrass plant response rating” value (barnyardgrass [15]; [22]) was 90, the “Barnyardgrass plant response rating” value (barnyardgrass [15]; [21]) was 90 and the “Velvetleaf plant response rating” value (velvetleaf [16]; [18]) was 20. For the same molecule, the “Velvetleaf plant response rating” value (velvetleaf [16]; [19]) was 100, the “Pigweed plant response rating” value (pigweed [17]; [18]) was 100 and the “Pigweed plant response rating” value (pigweed [17]; [19]) was 100.
